The results in this text go back to publication PMC12041489 (Scientific Reports, 2025).

Like-named read-outs stand apart in the source and are kept apart here. Bounds are passed on as bounds.

In test [1] the target is T1, mushroom tyrosinase (Agaricus bisporus, UniProt C7FF04). Kind of test: biochemical.
Test [2] addresses T1, mushroom tyrosinase. The settings on record: read-out: Tyrosinase inhibitory activity IC50.

T1 sequence (C7FF04 1-392 limits assumed): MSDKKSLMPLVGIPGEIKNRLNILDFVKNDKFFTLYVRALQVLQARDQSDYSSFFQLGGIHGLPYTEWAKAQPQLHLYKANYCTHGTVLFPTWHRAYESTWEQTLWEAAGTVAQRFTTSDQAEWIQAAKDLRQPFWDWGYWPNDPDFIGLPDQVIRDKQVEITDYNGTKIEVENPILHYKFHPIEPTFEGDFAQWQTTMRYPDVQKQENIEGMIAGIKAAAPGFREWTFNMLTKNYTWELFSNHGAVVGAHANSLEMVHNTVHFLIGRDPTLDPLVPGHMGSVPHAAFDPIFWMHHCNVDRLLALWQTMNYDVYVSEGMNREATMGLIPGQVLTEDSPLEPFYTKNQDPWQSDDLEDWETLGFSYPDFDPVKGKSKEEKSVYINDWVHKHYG

Turning to `Cc1cccc(C(=O)Nc2nnc(SCc3cn(Cc4cc(=O)c(O)co4)nn3)s2)c1` [Compound 6c, N-(5-(((1-((5-hydroxy-4-oxo-4H-pyran-2-yl)methyl)-1H-1,2,3-triazol-4-yl)meth-yl)thio)-1,3,4-thiadiazol-2-yl)-3-methylbenzamide], the IC50 against mushroom tyrosinase [1] was > 200 µM.

In the case of `CC(=O)c1ccc(OCc2cn(Cc3cc(=O)c(O)co3)nn2)cc1` [Compound 13d, 2-((4-((4-acetylphenoxy)methyl)-1H-1,2,3-triazol-1-yl)methyl)-5-hydroxy-4H-pyran-4-one], on mushroom tyrosinase [1], inhibition was half-maximal at 9.908 ± 0.044 µM (IC50).

`Cc1ccc(C(=O)Nc2nnc(SCc3cn(Cc4cc(=O)c(O)co4)nn3)s2)cc1` [Compound 6d, N-(5-(((1-((5-hydroxy-4-oxo-4H-pyran-2-yl)methyl)-1H-1,2,3-triazol-4-yl)meth-yl)thio)-1,3,4-thiadiazol-2-yl)-4-methylbenzamide]: at mushroom tyrosinase [1], the half-maximal inhibitory concentration (IC50) was > 200 µM.

With `O=C(Cc1ccc(Br)cc1)Nc1nnc(SCc2cn(Cc3cc(=O)c(O)co3)nn2)s1` [Compound 6n, 2-(4-bromophenyl)-N-(5-(((1-((5-hydroxy-4-oxo-4H-pyran-2-yl)methyl)-1H-1,2,3-triazol-4-yl)methyl)thio)-1,3,4-thiadiazol-2-yl)acetamide], at mushroom tyrosinase [1], the IC50 came to 12.36 ± 0.039 µM.

Regarding `Nc1ccc(C(=O)Nc2nnc(SCc3cn(Cc4cc(=O)c(O)co4)nn3)s2)cc1` [Compound 6i, 4-amino-N-(5-(((1-((5-hydroxy-4-oxo-4H-pyran-2-yl)methyl)-1H-1,2,3-triazol-4-yl)methyl)thio)-1,3,4-thiadiazol-2-yl)benzamide], half-maximal inhibition on mushroom tyrosinase [1] (IC50) was put at 16.31 ± 0.016 µM.

With `O=C(Nc1nnc(SCc2cn(Cc3cc(=O)c(O)co3)nn2)s1)c1ccccc1` [Compound 6a, N-(5-(((1-((5-hydroxy-4-oxo-4H-pyran-2-yl)methyl)-1H-1,2,3-triazol-4-yl)meth-yl)thio)-1,3,4-thiadiazol-2-yl)benzamide], the half-maximal inhibitory concentration (IC50) against mushroom tyrosinase [1] worked out at 20.59 ± 0.037 µM.

Turning to `COc1ccc(C=O)c(OCc2cn(Cc3cc(=O)c(O)co3)nn2)c1` [Compound 13j, 2-((1-((5-hydroxy-4-oxo-4H-pyran-2-yl)methyl)-1H-1,2,3-triazol-4-yl)methox-y)-4-methoxybenzaldehyde], the half-maximal inhibitory concentration (IC50) at mushroom tyrosinase [2] came out at 2.817 ± 0.007 µM.

On mushroom tyrosinase [1], `O=Cc1ccc(Br)cc1OCc1cn(Cc2cc(=O)c(O)co2)nn1` [Compound 13p, 4-bromo-2-((1-((5-hydroxy-4-oxo-4H-pyran-2-yl)methyl)-1H-1,2,3-triazol-4-yl)methoxy)benzaldehyde] showed an IC50 of 4.231 ± 0.029 µM.

`CC(=O)c1ccc(F)cc1OCc1cn(Cc2cc(=O)c(O)co2)nn1` [Compound 13s, 2-((4-((2-acetyl-5-fluorophenoxy)methyl)-1H-1,2,3-triazol-1-yl)methyl)-5-hy-droxy-4H-pyran-4-one]: the IC50 on mushroom tyrosinase [2] is 2.58 ± 0.049 µM.

Consider `O=Cc1ccc(F)cc1OCc1cn(Cc2cc(=O)c(O)co2)nn1` [Compound 13f, 4-fluoro-2-((1-((5-hydroxy-4-oxo-4H-pyran-2-yl)methyl)-1H-1,2,3-triazol-4-yl)methoxy)benzaldehyde], for which half-maximal inhibition against mushroom tyrosinase [1] (IC50) was put at 5.961 ± 0.036 µM.

Regarding `CC(=O)c1cc(C)ccc1OCc1cn(Cc2cc(=O)c(O)co2)nn1` [Compound 13o, 2-((4-((2-acetyl-4-methylphenoxy)methyl)-1H-1,2,3-triazol-1-yl)methyl)-5-hy-droxy-4H-pyran-4-one], the IC50 at mushroom tyrosinase [2] is 1.83 ± 0.042 µM.

`O=Cc1ccccc1OCc1cn(Cc2cc(=O)c(O)co2)nn1` [Compound 13g, 2-((1-((5-hydroxy-4-oxo-4H-pyran-2-yl)methyl)-1H-1,2,3-triazol-4-yl)methoxy)benzaldehyde]: the IC50 against mushroom tyrosinase [1] was 2.1 ± 0.078 µM.

Regarding `O=Cc1ccc(OCc2cn(Cc3cc(=O)c(O)co3)nn2)cc1` [Compound 13c, 4-((1-((5-hydroxy-4-oxo-4H-pyran-2-yl)methyl)-1H-1,2,3-triazol-4-yl)methoxy)benzaldehyde], at mushroom tyrosinase [1], the IC50 was 4.55 ± 0.062 µM.

Take `O=C(Nc1nnc(SCc2cn(Cc3cc(=O)c(O)co3)nn2)s1)c1ccc(Cl)cc1` [Compound 6e, 4–CHloro-N-(5-(((1-((5-hydroxy-4-oxo-4H-pyran-2-yl)methyl)-1H-1,2,3-triazol-4-yl)methyl)thio)-1,3,4-thiadiazol-2-yl)benzamide]: the IC50 on mushroom tyrosinase [1] stood at 6.073 ± 0.035 µM.

At mushroom tyrosinase [1], `CC(C)(C)c1cccc(C=O)c1OCc1cn(Cc2cc(=O)c(O)co2)nn1` [Compound 13l, 3-(tert-butyl)-2-((1-((5-hydroxy-4-oxo-4H-pyran-2-yl)methyl)-1H-1,2,3-triazol-4-yl)methoxy)benzaldehyde] gave an IC50 of 4.98 ± 0.057 µM.

`O=Cc1ccc(Cl)cc1OCc1cn(Cc2cc(=O)c(O)co2)nn1` [Compound 13m, 4–CHloro-2-((1-((5-hydroxy-4-oxo-4H-pyran-2-yl)methyl)-1H-1,2,3-triazol-4-yl)methoxy)benzaldehyde]: half-maximal inhibition on mushroom tyrosinase [1] (IC50) was put at 4.571 ± 0.004 µM.

Take `Cc1ccccc1C(=O)Nc1nnc(SCc2cn(Cc3cc(=O)c(O)co3)nn2)s1` [Compound 6b, N-(5-(((1-((5-hydroxy-4-oxo-4H-pyran-2-yl)methyl)-1H-1,2,3-triazol-4-yl)meth-yl)thio)-1,3,4-thiadiazol-2-yl)-2-methylbenzamide]: the IC50 against mushroom tyrosinase [1] is > 200 µM.

The compound `O=C(Cc1ccc(F)cc1)Nc1nnc(SCc2cn(Cc3cc(=O)c(O)co3)nn2)s1` [Compound 6o, 2-(4-fluorophenyl)-N-(5-(((1-((5-hydroxy-4-oxo-4H-pyran-2-yl)methyl)-1H-1,2,3-triazol-4-yl)methyl)thio)-1,3,4-thiadiazol-2-yl)acetamide] had a half-maximal inhibitory concentration (IC50) on mushroom tyrosinase [1] of 11.98 ± 0.022 µM.

With `CC(=O)c1ccccc1OCc1cn(Cc2cc(=O)c(O)co2)nn1` [Compound 13k, 2-((4-((2-acetylphenoxy)methyl)-1H-1,2,3-triazol-1-yl)methyl)-5-hydroxy-4H-pyran-4-one], the half-inhibitory concentration (IC50) on mushroom tyrosinase [1] came out at 1.517 ± 0.01 µM.

`O=C(Nc1nnc(SCc2cn(Cc3cc(=O)c(O)co3)nn2)s1)c1ccc(F)cc1` [Compound 6g, 4-fluoro-N-(5-(((1-((5-hydroxy-4-oxo-4H-pyran-2-yl)methyl)-1H-1,2,3-triazol-4-yl)methyl)thio)-1,3,4-thiadiazol-2-yl)benzamide] registered an IC50 against mushroom tyrosinase [1] of 8.24 ± 0.023 µM.

With `CC(=O)c1cccc(OCc2cn(Cc3cc(=O)c(O)co3)nn2)c1` [Compound 13b, 2-((4-((3-acetylphenoxy)methyl)-1H-1,2,3-triazol-1-yl)methyl)-5-hydroxy-4H-pyran-4-one], the IC50 against mushroom tyrosinase [1] amounted to 4.604 ± 0.046 µM.

On mushroom tyrosinase [1], `O=Cc1cccc(OCc2cn(Cc3cc(=O)c(O)co3)nn2)c1` [Compound 13a, 3-((1-((5-hydroxy-4-oxo-4H-pyran-2-yl)methyl)-1H-1,2,3-triazol-4-yl)methoxy)-benzaldehyde] gave an IC50 of 2.474 ± 0.023 µM.

The compound `O=C(Cc1ccc(Cl)cc1)Nc1nnc(SCc2cn(Cc3cc(=O)c(O)co3)nn2)s1` [Compound 6m, 2-(4–CHlorophenyl)-N-(5-(((1-((5-hydroxy-4-oxo-4H-pyran-2-yl)methyl)-1H-1,2,3-triazol-4-yl)methyl)thio)-1,3,4-thiadiazol-2-yl)acetamide] returned an IC50 against mushroom tyrosinase [1] of 10.17 ± 0.032 µM.

Compound `COc1ccc(C(=O)Nc2nnc(SCc3cn(Cc4cc(=O)c(O)co4)nn3)s2)cc1` [Compound 6h, N-(5-(((1-((5-hydroxy-4-oxo-4H-pyran-2-yl)methyl)-1H-1,2,3-triazol-4-yl)meth-yl)thio)-1,3,4-thiadiazol-2-yl)-4-methoxybenzamide] gave an IC50 against mushroom tyrosinase [1] of 5.56 ± 0.078 µM.
